Measured values as given in patent US10174033B2, “N6-substituted adenosine derivatives and N6-substituted adenine derivatives and uses thereof” (INSTITUTE OF MATERIA MEDICA, CHINESE ACADEMY OF MEDICAL …, priority 2009, dated 2019).

Legend:
mice = assay: Sub-threshold hypnotic dose sodium pentobarbital induced sleeping test; type: in vivo; settings: intraperitoneal, 30 min before sub-threshold sodium pentobarbital (22 mg/kg ip)
Experimental: N^6-substituted adenosine derivatives and/or N^6-substituted adenine derivatives potentiated sodium pentobarbital-induced sleep in mice
Name of Experiment: Sub-threshold hypnotic dose sodium pentobarbital induced sleeping test
Method of Experiment: Mice (n=7-10) were pretreated with test compound or vehicle, after 30 min, a maximal sub-threshold hypnotic dose of sodium pentobarbital (22 mg/kg) was given intraperitoneally (ip). (On some condition, the sub-threshold dosage of sodium pentobarbital should be optimized to the maximum dose, at which the rate of sleep onset of vehicle group is less than 10%). […] Following sodium pentobarbital injection, each mouse was observed 15 min for onset of sleep. The percentage of sleep onset was calculated as: (number of animals falling asleep/total number of animals)×100%.

male ICR-mice = assay: Potentiation of sodium pentobarbital sleeping time test; type: in vivo
[1] = bioassay-guided fractionation, sedative and hypnotic effects; settings: compound isolated from Gastrodia elata and Gymnadenia conopsea, result in words
PC12 cell = settings: result in words; cited from earlier work
adenosine A2A receptor = adenosine A2A receptor (Homo sapiens, UniProt P29274); settings: result in words; cited from earlier work
Sequence of adenosine A2A receptor (P29274 whole entry): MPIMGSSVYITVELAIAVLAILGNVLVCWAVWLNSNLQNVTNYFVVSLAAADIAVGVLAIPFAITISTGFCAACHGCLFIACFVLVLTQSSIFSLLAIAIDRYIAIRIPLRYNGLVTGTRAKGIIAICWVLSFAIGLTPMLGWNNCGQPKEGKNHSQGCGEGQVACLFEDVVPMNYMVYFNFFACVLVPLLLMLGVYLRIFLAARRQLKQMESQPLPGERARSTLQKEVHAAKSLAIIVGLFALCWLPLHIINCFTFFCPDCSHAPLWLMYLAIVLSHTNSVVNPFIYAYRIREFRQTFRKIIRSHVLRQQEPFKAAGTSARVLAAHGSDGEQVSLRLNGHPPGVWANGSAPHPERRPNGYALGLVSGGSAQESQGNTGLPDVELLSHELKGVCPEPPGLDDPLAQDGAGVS

[2] = intraperitoneal, 5 mg/kg, 38 mg/kg sodium pentobarbital 30 min later
[3] = oral, 5 mg/kg, 38 mg/kg sodium pentobarbital 60 min later
[4] = intraperitoneal, 1 mg/kg, 38 mg/kg sodium pentobarbital 30 min later

Compound | Sleep rate (%) (mice; 5 mg/kg) | Sleep prolonging rate (%) (male ICR-mice; [2]) | Sleep prolonging rate (%) (male ICR-mice; [3]) | Sleep rate (%) (mice; 1 mg/kg) | further results
O=C(O)[C@@H](CO)Nc1ncnc2c1ncn2[C@@H]1O[C@H](CO)C(O)C1O (stereo partly drawn) [Example 124, N-(6-adenosine)-(L)-serine] | – | – | – | – | Sleep rate (%) (mice; 5 mg/kg, listed as N-(6-adenosine)-(L)-serine): 29%; Sleep prolonging rate (%) (male ICR-mice; intraperitoneal, 5 mg/kg, 38 mg/kg sodium pentobarbital 30 min later, listed as N-(6-adenosine)-(L)-serine): 15%
OC[C@H]1O[C@@H](n2cnc3c(NCc4ccc5c(c4)OCO5)ncnc32)[C@H](O)[C@@H]1O [Example 31, N^6-(3,4-methylenedioxybenzyl)-adenosine] | 100% | 175% | – | – | –
O=C(O)[C@@H](Cc1c[nH]c2ccccc12)Nc1ncnc2c1ncn2[C@@H]1O[C@H](CO)C(O)C1O (stereo partly drawn) [Example 111, N-(6-adenosine)-(L)-tryptophan] | 14% | 69% | – | – | –
CC(Nc1ncnc2c1ncn2[C@@H]1O[C@H](CO)[C@@H](O)[C@H]1O)c1ccccc1 (mixture of isomers) [Example 45, N^6-[(±)-1-(phenyl)-ethyl]-adenosine] | 100% | 254% | 201% | – | –
COc1cc(CNc2ncnc3c2ncn3[C@@H]2O[C@H](CO)C(O)C2O)cc(OC)c1O (stereo partly drawn) [Example 36, N^6-(4-hydroxy-3,5-dimethxoybenzyl)-adenosine] | 86% | 336% | 121% | – | –
OC[C@H]1O[C@@H](n2cnc3c(NCc4ccc(OC(F)(F)F)cc4)ncnc32)[C@H](O)[C@@H]1O [Example 12, N^6-(p-trifluoromethoxybenzyl)-adenosine] | 43% | 44% | – | – | –
OC[C@H]1O[C@@H](n2cnc3c(NCCc4c[nH]c5ccccc45)ncnc32)[C@H](O)[C@@H]1O [Example 44, N^6-[(1H-Indole-3-yl)-ethyl]-adenosine] | 86% | 147% | 78% | – | –
OC[C@H]1O[C@@H](n2cnc3c(NCCc4c[nH]cn4)ncnc32)[C@H](O)[C@@H]1O [Example 43, N^6-[(1H-imidazole-4-yl)-ethyl]-adenosine] | – | – | – | 88% | Sleep prolonging rate (%) (male ICR-mice; [4]): 43%
OC[C@H]1O[C@@H](n2cnc3c(NCc4ccc(F)cc4)ncnc32)[C@H](O)[C@@H]1O [Example 11, N^6-(p-fluorobenzyl)-adenosine] | 71% | 73% | – | – | –
OC[C@H]1O[C@@H](n2cnc3c(NCc4ccc(O)c(O)c4)ncnc32)[C@H](O)[C@@H]1O [Example 22, N^6-(3,4-dihydroxybenzyl)-adenosine] | 100% | 32% | – | 87% | Sleep prolonging rate (%) (male ICR-mice; oral, 4 mg/kg, 38 mg/kg sodium pentobarbital 60 min later): 74%
O=C(O)C(Cc1c[nH]c2ccc(O)cc12)Nc1ncnc2c1ncn2[C@@H]1O[C@H](CO)C(O)C1O (stereo partly drawn) [Example 115, N-(6-adenosine)-5-hydroxy tryptophan] | 17% | 60% | – | – | –
O=C(O)[C@@H](Cc1ccc(O)cc1)Nc1ncnc2c1ncn2[C@@H]1O[C@H](CO)C(O)C1O (stereo partly drawn) [Example 106, N-(6-adenosine)-(D)-tyrosine] | 17% | 82% | – | – | –
Nc1cccc(CNc2ncnc3c2ncn3[C@@H]2O[C@H](CO)[C@@H](O)[C@H]2O)c1 [Example 7, N^6-(m-aminobenzyl)-adenosine] | – | – | 50% | 100% | Sleep prolonging rate (%) (male ICR-mice; [4]): 101%
COc1ccc(CCNc2ncnc3c2ncn3[C@@H]2O[C@H](CO)[C@@H](O)[C@H]2O)cc1O [Example 40, N^6-[(3-hydroxy-4-methoxyphenyl)-ethyl]-adenosine] | – | – | – | 50% | Sleep prolonging rate (%) (male ICR-mice; [4]): 1%
OC[C@H]1O[C@@H](n2cnc3c(NCc4ccccc4O)ncnc32)[C@H](O)[C@@H]1O [Example 3, N^6-(o-hydroxybenzyl)-adenosine] | – | – | 92% | 88% | –
O=C(O)[C@@H](CO)Nc1ncnc2c1ncn2[C@@H]1O[C@H](CO)C(O)C1O (stereo partly drawn) [Example 125, N-(6-adenosine)-(D)-serine] | – | – | – | – | Sleep rate (%) (mice; 5 mg/kg, listed as N-(6-adenosine)-(D)-serine): 14%; Sleep prolonging rate (%) (male ICR-mice; intraperitoneal, 5 mg/kg, 38 mg/kg sodium pentobarbital 30 min later, listed as N-(6-adenosine)-(D)-serine): 0%
OC[C@H]1O[C@@H](n2cnc3c(NCc4ccc(O)cc4)ncnc32)[C@H](O)[C@@H]1O [Example 2, N^6-(p-hydroxybenzyl)-adenosine] | – | – | – | 63% | Sleep prolonging rate (%) (male ICR-mice; oral, 1 mg/kg, 38 mg/kg sodium pentobarbital 60 min later): 90%; sedative and hypnotic effects [1]: significant sedative and hypnotic effects; preventing PC12 cell apoptosis (PC12 cell): effective in preventing PC12 cell apoptosis; binding to adenosine A2A receptor (adenosine A2A receptor): binding to adenosine A2A receptor
OC[C@H]1O[C@@H](n2cnc3c(NCc4ccc(C(F)(F)F)cc4)ncnc32)[C@H](O)[C@@H]1O [Example 13, N^6-(p-trifluoromethylbenzyl)-adenosine] | 57% | 23% | – | – | –
O=[N+]([O-])c1ccc(CNc2ncnc3c2ncn3[C@@H]2O[C@H](CO)[C@@H](O)[C@H]2O)cc1 [Example 8, N^6-(p-nitrobenzyl)-adenosine] | – | – | 29% | 63% | Sleep prolonging rate (%) (male ICR-mice; [4]): 16%
